Data set [1] in a line: Solubility at pH 6.8. To be noted: pH 6.8, aqueous buffer, thermodynamic from solid; read-out: solubility. In kind it is physicochemical. Put shortly: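 Following the procedure of Zhou et al. (2007), compound solubility was determined at pH 6.8.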
The target in data set [2] is T1, PI3K alpha (Homo sapiens, UniProt P42336).
T1 construct: p85(iSH2) fusion partner (see partner chain) (N); His tag (C); made in house; host or cells: baculovirus; Tn5 (Trichoplusia ni) or TiniPro insect cells
Kind of data set: PI3K alpha kinase assay (Kinase-Glo luminescence). In kind it is biochemical. Put shortly: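 Luminescent ATP-depletion assay (Kinase-Glo) with 10 nM PI3Kα and 10 μg/mL phosphatidylinositol as lipid substrate at 1 μM ATP. Incubation lasts 60 min at room temperature.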
Background: In Kinase-Glo more light means more ATP remaining.

In brackets after ≈: the same amount, converted by molar mass.

T1 sequence (P42336 with tags, fused parts or gaps limits assumed): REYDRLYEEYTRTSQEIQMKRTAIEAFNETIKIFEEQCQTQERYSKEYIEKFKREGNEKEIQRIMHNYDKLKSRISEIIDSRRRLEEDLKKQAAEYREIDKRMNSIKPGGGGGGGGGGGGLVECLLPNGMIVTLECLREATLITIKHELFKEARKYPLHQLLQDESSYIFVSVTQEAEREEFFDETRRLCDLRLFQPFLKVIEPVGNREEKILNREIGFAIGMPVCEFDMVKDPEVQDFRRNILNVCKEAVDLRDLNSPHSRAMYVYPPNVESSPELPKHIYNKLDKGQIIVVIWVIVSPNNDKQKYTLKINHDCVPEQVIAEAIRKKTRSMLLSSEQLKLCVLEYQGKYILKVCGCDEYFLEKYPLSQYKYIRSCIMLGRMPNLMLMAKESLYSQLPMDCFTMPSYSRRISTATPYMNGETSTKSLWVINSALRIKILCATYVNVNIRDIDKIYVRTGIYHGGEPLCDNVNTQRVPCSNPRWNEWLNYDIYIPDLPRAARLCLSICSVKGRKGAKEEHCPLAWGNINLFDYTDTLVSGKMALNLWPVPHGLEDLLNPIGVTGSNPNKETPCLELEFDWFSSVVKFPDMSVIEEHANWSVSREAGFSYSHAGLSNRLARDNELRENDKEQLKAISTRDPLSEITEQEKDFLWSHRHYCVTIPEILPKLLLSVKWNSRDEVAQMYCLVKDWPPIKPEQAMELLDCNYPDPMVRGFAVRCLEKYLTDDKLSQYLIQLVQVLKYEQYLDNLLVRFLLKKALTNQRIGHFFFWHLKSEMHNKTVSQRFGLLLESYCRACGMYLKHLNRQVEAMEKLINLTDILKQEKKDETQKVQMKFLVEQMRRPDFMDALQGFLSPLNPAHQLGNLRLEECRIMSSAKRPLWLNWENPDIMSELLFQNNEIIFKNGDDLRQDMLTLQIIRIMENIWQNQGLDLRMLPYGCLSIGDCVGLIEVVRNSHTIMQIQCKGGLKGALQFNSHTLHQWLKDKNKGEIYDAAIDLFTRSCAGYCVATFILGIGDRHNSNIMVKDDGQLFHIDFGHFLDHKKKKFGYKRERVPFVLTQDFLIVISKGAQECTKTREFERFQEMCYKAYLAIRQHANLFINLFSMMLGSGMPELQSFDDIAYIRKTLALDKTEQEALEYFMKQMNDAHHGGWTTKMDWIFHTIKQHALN

Usually solubility stands for how much of the substance goes into solution per volume. A word on the IC50: it is the concentration that inhibits the measured activity by half. Consider `CCOc1ccc(-c2ccc3ncc4c(c3c2)n(-c2c(C)nn(CC(=O)N(C)C)c2C)c(=O)n4C)cn1` [Example 3.12, 2-{4-[8-(6-Ethoxy-pyridin-3-yl)-3-methyl-2-oxo-2,3-dihydro-imidazo[4,5-c]quinolin-1-yl]-3,5-dimethyl-pyrazol-1-yl}-N,N-dimethyl-acetamide], for which the solubility in data set [1] was over 500 µg/mL. For the same molecule, the IC50 in data set [2] was 57 nM.
For the molecule `Cc1cc(-n2c(=O)n(C)c3cnc4ccc(-c5ccc(C(F)(F)F)nc5)cc4c32)n(C)n1` [Example 8.2, 1-(2,5-Dimethyl-2H-pyrazol-3-yl)-3-methyl-8-(6-trifluoromethyl-pyridin-3-yl)-1,3-dihydro-imidazo[4,5-c]quinolin-2-one], in data set [1], the solubility turned out to be 4 µg/mL (≈ 9.12 µM). For the same molecule, in data set [2], the half-inhibitory concentration (IC50) was determined as 95 nM.
For `COc1ncc(-c2ccc3ncc4c(c3c2)n(-c2cn(C)nc2Cl)c(=O)n4C)cn1` [Example 17.3, 1-(3-Chloro-1-methyl-1H-pyrazol-4-yl)-8-(2-methoxy-pyrimidin-5-yl)-3-methyl-1,3-dihydro-imidazo[4,5-c]quinolin-2-one], the solubility in data set [1] was 4 µg/mL (≈ 9.48 µM). Also, the IC50 in data set [2] came out at 9 nM.
On the same counts, the results for `Cc1nn(C)cc1-n1c(=O)n(C)c2cnc3ccc(-c4ccc(N)nc4)cc3c21` [Example 23.1, 8-(6-Amino-pyridin-3-yl)-1-(1,3-dimethyl-1H-pyrazol-4-yl)-3-methyl-1,3-dihydro-imidazo[4,5-c]quinolin-2-one] are 16 µg/mL (≈ 41.5 µM) and 8 nM.
Take `Cc1nn(C(C)C)cc1-n1c(=O)n(C)c2cnc3ccc(-c4ccc(N)nc4)cc3c21` [Example 23.2, 8-(6-Amino-pyridin-3-yl)-1-(1-isopropyl-3-methyl-1H-pyrazol-4-yl)-3-methyl-1,3-dihydro-imidazo[4,5-c]quinolin-2-one]: the solubility in data set [1] amounted to 45 µg/mL (≈ 109 µM). The IC50 in data set [2] was 35 nM.
On the same counts, the results for `Cc1nn(C)cc1-n1c(=O)n(C)c2cnc3ccc(-c4cncc(N)c4)cc3c21` [Example 45.1, 8-(5-Amino-pyridin-3-yl)-1-(1,3-dimethyl-1H-pyrazol-4-yl)-3-methyl-1,3-dihydro-imidazo[4,5-c]quinolin-2-one] are over 385 µg/mL and 14 nM.
On the same counts, the results for `CCOc1cncc(-c2ccc3ncc4c(c3c2)n(-c2c(C)cnn2C)c(=O)n4C)c1` [Example 56.5, 1-(2,4-Dimethyl-2H-pyrazol-3-yl)-8-(5-ethoxy-pyridin-3-yl)-3-methyl-1,3-dihydro-imidazo[4,5-c]quinolin-2-one] are 16 µg/mL (≈ 38.6 µM) and 155 nM.
Regarding `Cc1nn(C)cc1-n1c(=O)n(C)c2cnc3ccc(-c4cncc(OCC5CC5)c4)cc3c21` [Example 61, 8-(5-Cyclopropylmethoxy-pyridin-3-yl)-1-(1,3-dimethyl-1H-pyrazol-4-yl)-3-methyl-1,3-dihydro-imidazo[4,5-c]quinolin-2-one], in data set [1], the solubility turned out to be 8 µg/mL (≈ 18.2 µM). Further, in data set [2], the 50% inhibitory concentration (IC50) was found to be 12 nM.
In the case of `Cc1nn(C)cc1-n1c(=O)n(C)c2cnc3ccc(-c4cnc5c(c4)nc(N(C)C)n5C)cc3c21` [Example 70, 8-(2-Dimethylamino-3-methyl-3H-imidazo[4,5-b]pyridin-6-yl)-1-(1,3-dimethyl-1H-pyrazol-4-yl)-3-methyl-1,3-dihydro-imidazo[4,5-c]quinolin-2-one], the solubility in data set [1] was 47 µg/mL (≈ 101 µM). Besides, in data set [2], the IC50 worked out at 375 nM.
In the same order, the values of `Cc1nn(C)c(C)c1-n1c(=O)n(C)c2cnc3ccc(-c4cnc(N)nc4)cc3c21` [Example 81.2, 8-(2-Amino-pyrimidin-5-yl)-3-methyl-1-(1,3,5-trimethyl-1H-pyrazol-4-yl)-1,3-dihydro-imidazo[4,5-c]quinolin-2-one] are 133 µg/mL (≈ 332 µM) and 51 nM.
In the same order, the values of `CCOc1cc(-c2ccc3ncc4c(c3c2)n(-c2cn(C)nc2C)c(=O)n4C)cnc1C` [Example 85.1, 1-(1,3-Dimethyl-1H-pyrazol-4-yl)-8-(5-ethoxy-6-methyl-pyridin-3-yl)-3-methyl-1,3-dihydro-imidazo[4,5-c]quinolin-2-one] are 6 µg/mL (≈ 14 µM) and 6 nM.
On the same counts, the results for `Cc1ncc(-c2ccc3ncc4c(c3c2)n(-c2cn(C)nc2Cl)c(=O)n4C)cc1N` [Example 88.1, 8-(5-Amino-6-methyl-pyridin-3-yl)-1-(3-chloro-1-methyl-1H-pyrazol-4-yl)-3-methyl-1,3-dihydro-imidazo[4,5-c]quinolin-2-one] are 3 µg/mL (≈ 7.14 µM) and 11 nM.
As to `CCOc1ccc(-c2ccc3ncc4c(c3c2)n(-c2cn(CCO)nc2C)c(=O)n4C)cn1` [Example 103.2, 8-(6-Ethoxy-pyridin-3-yl)-1-[1-(2-hydroxy-ethyl)-3-methyl-1H-pyrazol-4-yl]-3-methyl-1,3-dihydro-imidazo[4,5-c]quinolin-2-one], the solubility in data set [1] was determined as 10 µg/mL (≈ 22.5 µM). For the same molecule, the 50% inhibitory concentration (IC50) in data set [2] was found to be 42 nM.
On the same counts, the results for `COCCN(C)C(=O)Cn1cc(-n2c(=O)n(C)c3cnc4ccc(-c5ccccc5)cc4c32)c(C)n1` [Example 137, N-(2-Methoxy-ethyl)-N-methyl-2-[3-methyl-4-(3-methyl-2-oxo-8-phenyl-2,3-dihydro-imidazo[4,5-c]quinolin-1-yl)-pyrazol-1-yl]-acetamide] are 427 µg/mL (≈ 881 µM) and 161 nM.
On the same counts, the results for `CCOc1ccc(-c2ccc3ncc4c(c3c2)n(-c2cn(CC(=O)N3CCC3)nc2C)c(=O)n4C)cn1` [Example 138, 1-[1-(2-Azetidin-1-yl-2-oxo-ethyl)-3-methyl-1H-pyrazol-4-yl]-8-(6-ethoxy-pyridin-3-yl)-3-methyl-1,3-dihydro-imidazo[4,5-c]quinolin-2-one] are 26 µg/mL (≈ 52.3 µM) and 13 nM.
On to `CCN(CC)C(=O)Cn1cc(-n2c(=O)n(C)c3cnc4ccc(-c5ccc(C)nc5)cc4c32)c(C)n1` [Example 139, N,N-Diethyl-2-{3-methyl-4-[3-methyl-8-(6-methyl-pyridin-3-yl)-2-oxo-2,3-dihydro-imidazo[4,5-c]quinolin-1-yl]-pyrazol-1-yl}-acetamide], for which the solubility in data set [1] is over 484 µg/mL. For the same molecule, the IC50 in data set [2] was 17 nM.
On the same counts, the results for `CNc1ncc(-c2ccc3ncc4c(c3c2)n(-c2cn(C)nc2C)c(=O)n4C)cc1C(F)(F)F` [Example 144.3, 1-(1,3-Dimethyl-1H-pyrazol-4-yl)-3-methyl-8-(6-methylamino-5-trifluoromethyl-pyridin-3-yl)-1,3-dihydro-imidazo[4,5-c]quinolin-2-one] are 44 µg/mL (≈ 94.1 µM) and 10 nM.
In the same order, the values of `CCn1cc(-n2c(=O)n(C)c3cnc4ccc(-c5cnc(NC)c(Cl)c5)cc4c32)c(C)n1` [Example 146.2, 8-(5-Chloro-6-methylamino-pyridin-3-yl)-1-(1-ethyl-3-methyl-1H-pyrazol-4-yl)-3-methyl-1,3-dihydro-imidazo[4,5-c]quinolin-2-one] are 6 µg/mL (≈ 13.4 µM) and 119 nM.
On the same counts, the results for `Cc1nn(C(C)C)cc1-n1c(=O)n(C)c2cnc3ccc(-c4cnc(F)c(N)c4)cc3c21` [Example 149.1, 8-(5-Amino-6-fluoro-pyridin-3-yl)-1-(1-isopropyl-3-methyl-1H-pyrazol-4-yl)-3-methyl-1,3-dihydro-imidazo[4,5-c]quinolin-2-one] are 13 µg/mL (≈ 30.1 µM) and 48 nM.

For the origin of these results see patent US20140005163A1 (NOVARTIS AG, priority 2010, published 2014).
